Columns and labels:
[1] = tested on: ACCOS (hophornbeam copperleaf); test: Field trial 1 weed control, ACCOS; type: in vivo; conditions: 0.25 lb/acre, pre-emergence to weeds, 4 WAT
From the text: (§1) Four replications were completed per treatment.

BRASS (Signalgrass sps.) = test: Field trial 1 weed control, BRASS; type: in vivo; conditions: 0.25 lb/acre, pre-emergence to weeds, 4 WAT
From the text: as §1

[2] = tested on: CHEAL (common lambsquarters); test: Field trial 1 weed control, CHEAL; type: in vivo; conditions: 0.25 lb/acre, pre-emergence to weeds, 4 WAT
From the text: as §1

SETFA (giant foxtail) = test: Field trial 1 weed control, SETFA; type: in vivo; conditions: 0.25 lb/acre, pre-emergence to weeds, 4 WAT
From the text: as §1

AMAPG = test: Field trial 1 weed control, AMAPG; type: in vivo, Glyphosate-resistant (GR) AMAPA; conditions: 0.25 lb/acre, pre-emergence to weeds, 4 WAT
From the text: as §1

AMATA = test: Field trial 1 weed control, AMATA; type: in vivo, waterhemp; conditions: 0.25 lb/acre, pre-emergence to weeds, 4 WAT
From the text: as §1

SEBEX = test: Field trial 1 weed control, SEBEX; conditions: 0.25 lb/acre, pre-emergence to weeds, 4 WAT
Description: A series of field trials were conducted at a variety of locations. The soil texture at these sites ranged from silty loam, silty clay loam, to sandy silt loam and sandy loam. The objective of the experiment was to evaluate the weed efficacy and length of residual efficacy of the each standalone herbicide compared to the herbicide combinations. The experiments were conducted in a randomized complete block design. Four replications were completed per treatment. Time of application was pre-emergence to weeds, and treatments were applied using a back-pack or tractor mounted sprayer.
Weed control was determined as a percentage as compared to untreated plants following a standard procedure where visual assessment of plant mortality and growth reduction is made by one specially trained to make such assessments. Across the field trials, the results for 16 broadleaf and 7 narrowleaf weed species were recorded. […] Mean percent control and standard error are calculated by the least squares method.

ABUTH (velvetleaf) = test: Field trial 1 weed control, ABUTH; type: in vivo; conditions: 0.25 lb/acre, pre-emergence to weeds, 4 WAT
From the text: as §1

SORHA (johnsongrass) = test: Field trial 1 weed control, SORHA; type: in vivo; conditions: 0.25 lb/acre, pre-emergence to weeds, 4 WAT
From the text: as §1

narrowleaf weed species [3] = test: Field Trial 2 results summary, narrowleaf control; type: in vivo; conditions: 0.25 lb a.i./acre (0.28 kg/hectare), 4 WAT
From the text: as §1

ECHCG (Echinochola sps.) = test: Field trial 1 weed control, ECHCG; type: in vivo; conditions: 0.25 lb/acre, pre-emergence to weeds, 4 WAT
From the text: as §1

IPOLA = test: Field trial 1 weed control, IPOLA; type: in vivo; conditions: 0.25 lb/acre, pre-emergence to weeds, 4 WAT
From the text: as §1

SIDSP (prickly sida) = test: Field trial 1 weed control, SIDSP; type: in vivo; conditions: 0.25 lb/acre, pre-emergence to weeds, 4 WAT
From the text: as §1

DIGSS (Digitaria sps.) = test: Field trial 1 weed control, DIGSS; type: in vivo; conditions: 0.25 lb/acre, pre-emergence to weeds, 4 WAT
From the text: as §1

EPHSS (Euphorbia sps.) = test: Field trial 1 weed control, EPHSS; type: in vivo; conditions: 0.25 lb/acre, pre-emergence to weeds, 4 WAT
From the text: as §1

CASOB (sicklepod) = test: Field trial 1 weed control, CASOB; type: in vivo; conditions: 0.25 lb/acre, pre-emergence to weeds, 4 WAT
From the text: as §1

IPOHE = test: Field trial 1 weed control, IPOHE; type: in vivo; conditions: 0.25 lb/acre, pre-emergence to weeds, 4 WAT
From the text: as §1

POROL (common purslane) = test: Field trial 1 weed control, POROL; type: in vivo; conditions: 0.25 lb/acre, pre-emergence to weeds, 4 WAT
From the text: as §1

narrowleaf weed species [4] = test: Field Trial 1 results summary, narrowleaf control; type: in vivo; conditions: 0.25 lb a.i./acre (0.28 kg/hectare), 4 WAT
From the text: as §1

AMATG = test: Field trial 1 weed control, AMATG; type: in vivo, Glyphosate-resistant (GR) AMATA; conditions: 0.25 lb/acre, pre-emergence to weeds, 4 WAT
From the text: as §1

PESGL (pearl millet) = test: Field trial 1 weed control, PESGL; type: in vivo; conditions: 0.25 lb/acre, pre-emergence to weeds, 4 WAT
From the text: as §1

[5] = tested on: IPOSS (Morningglory sps.); test: Field trial 1 weed control, IPOSS; type: in vivo; conditions: 0.25 lb/acre, pre-emergence to weeds, 4 WAT
From the text: as §1

AMBEL (common ragweed) = test: Field trial 1 weed control, AMBEL; type: in vivo; conditions: 0.25 lb/acre, pre-emergence to weeds, 4 WAT
From the text: as §1

DIGSA = test: Field trial 1 weed control, DIGSA; type: in vivo; conditions: 0.25 lb/acre, pre-emergence to weeds, 4 WAT
From the text: as §1

MOLVE (carpetweed) = test: Field trial 1 weed control, MOLVE; type: in vivo; conditions: 0.25 lb/acre, pre-emergence to weeds, 4 WAT
From the text: as §1

broadleaf weed species [6] = test: Field Trial 1 results summary, broadleaf control; type: in vivo; conditions: 0.25 lb a.i./acre (0.28 kg/hectare), 4 WAT
From the text: as §1

AMAPA = test: Field trial 1 weed control, AMAPA; type: in vivo, palmer amaranth; conditions: 0.25 lb/acre, pre-emergence to weeds, 4 WAT
From the text: as §1

broadleaf weed species [7] = test: Field Trial 2 results summary, broadleaf control; type: in vivo; conditions: 0.25 lb a.i./acre (0.28 kg/hectare), 4 WAT
From the text: as §1

ECHCF = test: Field trial 1 weed control, ECHCF; type: in vivo; conditions: 0.25 lb/acre, pre-emergence to weeds, 4 WAT
From the text: as §1

HIBTR (venice mallow) = test: Field trial 1 weed control, HIBTR; type: in vivo; conditions: 0.25 lb/acre, pre-emergence to weeds, 4 WAT
From the text: as §1

SORSS (Sorghum sps.) = test: Field trial 1 weed control, SORSS; type: in vivo; conditions: 0.25 lb/acre, pre-emergence to weeds, 4 WAT
From the text: as §1

## CS(=O)(=O)NC(=O)c1cc(Oc2ccc(C(F)(F)F)cc2Cl)ccc1[N+](=O)[O-] [Fomesafen, fomesafen]
[1]
  % Control (mean): 93.8%
BRASS (Signalgrass sps.)
  % Control (mean): 99.5%
[2]
  % Control (mean): 78.3%
SETFA (giant foxtail)
  % Control (mean): 58.8%
AMAPG
  % Control (mean): 87.8%
AMATA
  % Control (mean): 85.8%
SEBEX
  % Control (mean): 33.8%
ABUTH (velvetleaf)
  % Control (mean): 63.7%
SORHA (johnsongrass)
  % Control (mean): 86.8%
Narrowleaf weed species [3]
  Narrowleaf Control: 66.3%
ECHCG (Echinochola sps.)
  % Control (mean): 66.8%
IPOLA
  % Control (mean): 27.5%
SIDSP (prickly sida)
  % Control (mean): 98.3%
DIGSS (Digitaria sps.)
  % Control (mean): 99.0%
EPHSS (Euphorbia sps.)
  % Control (mean): 100.0%
CASOB (sicklepod)
  % Control (mean): 46.2%
IPOHE
  % Control (mean): 52.5%
POROL (common purslane)
  % Control (mean): 66.3%
Narrowleaf weed species [4]
  Narrowleaf Control: 79%
AMATG
  % Control (mean): 57.5%
PESGL (pearl millet)
  % Control (mean): 100.0%
[5]
  % Control (mean): 63.1%
AMBEL (common ragweed)
  % Control (mean): 75.8%
DIGSA
  % Control (mean): 65.3%
MOLVE (carpetweed)
  % Control (mean): 90.6%
Broadleaf weed species [6]
  Broadleaf Control: 70%
AMAPA
  % Control (mean): 92.5%
Broadleaf weed species [7]
  Broadleaf Control: 63.6%
ECHCF
  % Control (mean): 71.9%
HIBTR (venice mallow)
  % Control (mean): 75.0%
SORSS (Sorghum sps.)
  % Control (mean): 99.8%
